Experimental data from PubChem BioAssay (NCI).
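Cells were grown in 96-well plates and exposed to each compound for 48 hours at five concentrations; endpoints were interpolated linearly between bracketing concentrations, or set to the highest concentration if not reached. The concentration for 50% growth inhibition is given as GI50. TGI is the concentration that stops growth completely.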

Tests used:
Test in all cases: NCI tumour cell line growth inhibition, 48 h
K-562 leukemia = tested on: K-562 leukemia
BT-549 breast = tested on: BT-549 breast
SR leukemia = tested on: SR leukemia
MDA-MB-231 breast = tested on: MDA-MB-231 breast
SF-268 CNS = tested on: SF-268 CNS
M14 melanoma = tested on: M14 melanoma
SK-MEL-5 melanoma = tested on: SK-MEL-5 melanoma
UACC-257 melanoma = tested on: UACC-257 melanoma
HCT-15 colon = tested on: HCT-15 colon
ACHN renal = tested on: ACHN renal
NCI-H460 lung = tested on: NCI-H460 lung
OVCAR-5 ovarian = tested on: OVCAR-5 ovarian
HS 578T breast = tested on: HS 578T breast
OVCAR-3 ovarian = tested on: OVCAR-3 ovarian
SF-295 CNS = tested on: SF-295 CNS
OVCAR-8 ovarian = tested on: OVCAR-8 ovarian
786-0 renal = tested on: 786-0 renal
CCRF-CEM leukemia = tested on: CCRF-CEM leukemia
IGROV1 ovarian = tested on: IGROV1 ovarian
SF-539 CNS = tested on: SF-539 CNS
SN12C renal = tested on: SN12C renal
SNB-75 CNS = tested on: SNB-75 CNS
MALME-3M melanoma = tested on: MALME-3M melanoma
RPMI-8226 leukemia = tested on: RPMI-8226 leukemia
EKVX NSCLC = tested on: EKVX NSCLC
NCI-H23 lung = tested on: NCI-H23 lung
NCI-H226 lung = tested on: NCI-H226 lung
DU-145 prostate = tested on: DU-145 prostate
UACC-62 melanoma = tested on: UACC-62 melanoma
SW-620 colon = tested on: SW-620 colon
HCT-116 colon = tested on: HCT-116 colon
HOP-92 NSCLC = tested on: HOP-92 NSCLC
SK-MEL-2 melanoma = tested on: SK-MEL-2 melanoma
HCC-2998 colon = tested on: HCC-2998 colon
UO-31 renal = tested on: UO-31 renal
PC-3 prostate = tested on: PC-3 prostate
MOLT-4 leukemia = tested on: MOLT-4 leukemia
LOX IMVI melanoma = tested on: LOX IMVI melanoma
SK-OV-3 ovarian = tested on: SK-OV-3 ovarian
TK-10 renal = tested on: TK-10 renal
U251 CNS = tested on: U251 CNS
NCI/ADR-RES ovarian = tested on: NCI/ADR-RES ovarian
HOP-62 NSCLC = tested on: HOP-62 NSCLC
HL-60(TB) leukemia = tested on: HL-60(TB) leukemia
RXF 393 renal = tested on: RXF 393 renal
NCI-H522 lung = tested on: NCI-H522 lung
A549 NSCLC = tested on: A549 NSCLC
HT29 colon = tested on: HT29 colon
OVCAR-4 ovarian = tested on: OVCAR-4 ovarian
KM12 colon = tested on: KM12 colon
COLO 205 colon = tested on: COLO 205 colon
A498 renal = tested on: A498 renal
CAKI-1 renal = tested on: CAKI-1 renal
MDA-MB-435 = tested on: MDA-MB-435
MCF7 breast = tested on: MCF7 breast
SNB-19 CNS = tested on: SNB-19 CNS
SK-MEL-28 melanoma = tested on: SK-MEL-28 melanoma

SMILES: O=S(=O)(Nc1cccc2ccccc12)c1ccc(-c2cnc(C3CC3)o2)cc1
- GI50 (K-562 leukemia): 41.7 nM
- TGI (K-562 leukemia): > 73200 nM
- GI50 (BT-549 breast): 4200 nM
- TGI (BT-549 breast): 34800 nM
- GI50 (SR leukemia): 40.2 nM
- TGI (SR leukemia): > 34300 nM
- GI50 (MDA-MB-231 breast): 389 nM
- TGI (MDA-MB-231 breast): > 48700 nM
- GI50 (SF-268 CNS): 716 nM
- TGI (SF-268 CNS): > 100000 nM
- GI50 (M14 melanoma): 76.4 nM
- TGI (M14 melanoma): > 48500 nM
- GI50 (SK-MEL-5 melanoma): 56.8 nM
- TGI (SK-MEL-5 melanoma): 3410 nM
- GI50 (UACC-257 melanoma): 5940 nM
- TGI (UACC-257 melanoma): 45700 nM
- GI50 (HCT-15 colon): 50.5 nM
- TGI (HCT-15 colon): > 42000 nM
- GI50 (ACHN renal): 68.4 nM
- TGI (ACHN renal): > 100000 nM
- GI50 (NCI-H460 lung): 43.5 nM
- TGI (NCI-H460 lung): 12600 nM
- GI50 (OVCAR-5 ovarian): 450 nM
- TGI (OVCAR-5 ovarian): > 100000 nM
- GI50 (HS 578T breast): 56.3 nM
- TGI (HS 578T breast): > 76100 nM
- GI50 (OVCAR-3 ovarian): 42.5 nM
- TGI (OVCAR-3 ovarian): 15700 nM
- GI50 (SF-295 CNS): 40.1 nM
- TGI (SF-295 CNS): 15600 nM
- GI50 (OVCAR-8 ovarian): 347 nM
- TGI (OVCAR-8 ovarian): > 100000 nM
- GI50 (786-0 renal): 71.2 nM
- TGI (786-0 renal): > 82900 nM
- GI50 (CCRF-CEM leukemia): 41.2 nM
- TGI (CCRF-CEM leukemia): > 100000 nM
- GI50 (IGROV1 ovarian): 62.6 nM
- TGI (IGROV1 ovarian): > 100000 nM
- GI50 (SF-539 CNS): 42.3 nM
- TGI (SF-539 CNS): 2070 nM
- GI50 (SN12C renal): 508 nM
- TGI (SN12C renal): > 64600 nM
- GI50 (SNB-75 CNS): 30.1 nM
- TGI (SNB-75 CNS): 82500 nM
- GI50 (MALME-3M melanoma): 12100 nM
- TGI (MALME-3M melanoma): 67300 nM
- GI50 (RPMI-8226 leukemia): 53.6 nM
- TGI (RPMI-8226 leukemia): 20000 nM
- GI50 (EKVX NSCLC): 276 nM
- TGI (EKVX NSCLC): > 91400 nM
- GI50 (NCI-H23 lung): 186 nM
- TGI (NCI-H23 lung): 31500 nM
- GI50 (NCI-H226 lung): 106 nM
- TGI (NCI-H226 lung): 30600 nM
- GI50 (DU-145 prostate): 144 nM
- TGI (DU-145 prostate): > 100000 nM
- GI50 (UACC-62 melanoma): 40.2 nM
- TGI (UACC-62 melanoma): 23500 nM
- GI50 (SW-620 colon): 48.9 nM
- TGI (SW-620 colon): > 100000 nM
- GI50 (HCT-116 colon): 47.3 nM
- TGI (HCT-116 colon): > 74500 nM
- GI50 (HOP-92 NSCLC): < 19.3 nM
- TGI (HOP-92 NSCLC): 4790 nM
- GI50 (SK-MEL-2 melanoma): 2420 nM
- TGI (SK-MEL-2 melanoma): 56500 nM
- GI50 (HCC-2998 colon): 220 nM
- TGI (HCC-2998 colon): 23900 nM
- GI50 (UO-31 renal): 74.5 nM
- TGI (UO-31 renal): > 59200 nM
- GI50 (PC-3 prostate): 47.4 nM
- TGI (PC-3 prostate): > 59900 nM
- GI50 (MOLT-4 leukemia): 101 nM
- TGI (MOLT-4 leukemia): > 49400 nM
- GI50 (LOX IMVI melanoma): 48.8 nM
- TGI (LOX IMVI melanoma): 26000 nM
- GI50 (SK-OV-3 ovarian): 2190 nM
- TGI (SK-OV-3 ovarian): > 85800 nM
- GI50 (TK-10 renal): 19700 nM
- TGI (TK-10 renal): > 100000 nM
- GI50 (U251 CNS): 74.5 nM
- TGI (U251 CNS): 97100 nM
- GI50 (NCI/ADR-RES ovarian): 45.5 nM
- TGI (NCI/ADR-RES ovarian): 16700 nM
- GI50 (HOP-62 NSCLC): 99.5 nM
- TGI (HOP-62 NSCLC): > 89700 nM
- GI50 (HL-60(TB) leukemia): 30.1 nM
- TGI (HL-60(TB) leukemia): 388 nM
- GI50 (RXF 393 renal): 23.7 nM
- TGI (RXF 393 renal): 141 nM
- GI50 (NCI-H522 lung): 61.2 nM
- TGI (NCI-H522 lung): 24000 nM
- GI50 (A549 NSCLC): 141 nM
- TGI (A549 NSCLC): > 100000 nM
- GI50 (HT29 colon): 48.4 nM
- TGI (HT29 colon): > 68900 nM
- GI50 (OVCAR-4 ovarian): 88 nM
- TGI (OVCAR-4 ovarian): > 100000 nM
- GI50 (KM12 colon): 49.8 nM
- TGI (KM12 colon): 14900 nM
- GI50 (COLO 205 colon): 99 nM
- TGI (COLO 205 colon): 1350 nM
- GI50 (A498 renal): 33.4 nM
- TGI (A498 renal): 500 nM
- GI50 (CAKI-1 renal): 46.3 nM
- TGI (CAKI-1 renal): > 81700 nM
- GI50 (MDA-MB-435): 24.3 nM
- TGI (MDA-MB-435): 85.4 nM
- GI50 (MCF7 breast): 32.9 nM
- TGI (MCF7 breast): > 57700 nM
- GI50 (SNB-19 CNS): 63 nM
- TGI (SNB-19 CNS): > 100000 nM
- GI50 (SK-MEL-28 melanoma): 3440 nM
- TGI (SK-MEL-28 melanoma): > 100000 nM
